Values of other authors in paper PMC12246617, “Cryo-EM structures reveal the PP2A–B55α and Eya3 interaction that can be disrupted by a peptide inhibitor” (The Journal of Biological Chemistry, 2025).

Tested on: PP2A–B55
Conditions: 6,8-difluoro-4-methylumbelliferyl phosphate substrate; 30 mM Hepes [pH 7.0], 150 mM NaCl, 1 mM MnCl2, 1 mM DTT, 0.01% Triton X-100, 0.1 mg/ml BSA; ref 84 (Padi et al.); read-out: IC50 (phosphatase activity of PP2A–B55)
From the text: To identify the factor that led to this discrepancy, we first repeated our as ...

For “Eya3 peptide: Eya3 peptide (residues 62–108) of Padi et al. (RSSNDYTSQMYSAKPYAHILSVPVSETAYPGQTQYQTLQQTQPYAVY; UniProt Q99504 62-108, looked up, fragment)”, the IC50 is listed as 1100 ± 84 nM.
